Measurements taken from BindingDB's records for patent US20250214967 (Berrybio (Shanghai), 2025).

Molecular target: Focal adhesion kinase 1 (Homo sapiens, UniProt Q05397)
Assay: FAK Kinase Assay
Experimental: The inhibitory activity of a compound against FAK was determined in a buffer containing 5 mM HEPES, pH 7.5, 0.01% Triton, 0.5 mM EGTA, and 0.01% BRIJ™-35 in a 384-well assay plate. The assay was carried out in the presence of the FAK at 1 nM and ATP at 6.8 μM using fluorescein-polyGT (0.2 μM) as an FAK substrate. Each assay mixture was incubated at room temperature for 30 min. A LANTHASCREEN Tb-PY20 antibody was added to each well to stop the enzymatic reaction. The plate was incubated at room temperature for 60 min before reading on an ENVISION using TR-FRET module (excitation at 340 nm and emission at 520 nm and 495 nm).

Sequence of Focal adhesion kinase 1 (Q05397 whole entry): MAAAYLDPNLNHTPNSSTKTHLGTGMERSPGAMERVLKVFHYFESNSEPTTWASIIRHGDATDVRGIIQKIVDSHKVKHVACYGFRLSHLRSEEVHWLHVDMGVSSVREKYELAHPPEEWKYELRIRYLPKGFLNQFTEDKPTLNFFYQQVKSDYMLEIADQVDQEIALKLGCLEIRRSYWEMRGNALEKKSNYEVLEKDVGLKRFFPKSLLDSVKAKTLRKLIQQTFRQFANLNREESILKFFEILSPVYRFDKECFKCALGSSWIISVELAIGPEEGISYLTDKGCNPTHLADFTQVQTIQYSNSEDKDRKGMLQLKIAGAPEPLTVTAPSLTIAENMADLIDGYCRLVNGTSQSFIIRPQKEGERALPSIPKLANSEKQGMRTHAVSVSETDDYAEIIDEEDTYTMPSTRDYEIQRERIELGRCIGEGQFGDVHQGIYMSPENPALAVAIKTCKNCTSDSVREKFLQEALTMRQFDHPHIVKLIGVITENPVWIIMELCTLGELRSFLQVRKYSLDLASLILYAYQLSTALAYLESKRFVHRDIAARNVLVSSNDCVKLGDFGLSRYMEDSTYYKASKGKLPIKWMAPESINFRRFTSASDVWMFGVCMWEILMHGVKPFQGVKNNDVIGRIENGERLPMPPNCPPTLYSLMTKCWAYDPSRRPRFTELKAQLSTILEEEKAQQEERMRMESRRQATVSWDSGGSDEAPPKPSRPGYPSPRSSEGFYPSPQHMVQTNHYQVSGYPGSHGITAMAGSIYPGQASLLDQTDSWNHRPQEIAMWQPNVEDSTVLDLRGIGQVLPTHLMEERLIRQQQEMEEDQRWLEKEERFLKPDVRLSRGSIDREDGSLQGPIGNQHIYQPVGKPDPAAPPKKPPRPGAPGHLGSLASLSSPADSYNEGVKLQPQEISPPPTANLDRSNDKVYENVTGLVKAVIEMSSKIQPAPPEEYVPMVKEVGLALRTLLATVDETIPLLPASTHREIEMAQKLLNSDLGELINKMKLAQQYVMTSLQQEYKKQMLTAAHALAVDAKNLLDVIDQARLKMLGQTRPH

Question: With `Cc1cc(Cc2ncc(C(F)(F)F)c(NCC3C=C(N(C)S(C)(=O)=O)CCC3)n2)ccc1OCCOCCOCCOc1ccc2c(c1)C(=O)N(C1CCC(=O)NC1=O)C2=O` (stereo unspecified) [US20250214967, Compound A2] as the compound, how does the IC50 read?
Answer: 3 nM
